Results: ChEMBL document CHEMBL1201862, “PubChem BioAssay data set” (2004)
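Test compounds were applied to cells in 96-well plates for 48 hours at 5 doses. GI50 marks 50% less growth.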 Activity calls are given as the source filed them. Rule as the data show it: active = GI50 up to about 1.1 µM and inactive = higher.

Experiments:
Test in all cases: NCI tumour cell line growth inhibition, 48 h
786-0 = system: 786-0
A498 = system: A498
A549 = system: A549
ACHN = system: ACHN
BT-549 = system: BT-549
CAKI-1 = system: CAKI-1
CCRF-CEM = system: CCRF-CEM
COLO 205 = system: COLO 205
DLD-1 = system: DLD-1
DMS-114 = system: DMS-114
DMS-273 = system: DMS-273
DU-145 = system: DU-145
EKVX = system: EKVX
HCC 2998 = system: HCC 2998
HCT-116 = system: HCT-116
HCT-15 = system: HCT-15
HL-60 = system: HL-60
HOP-18 = system: HOP-18
HOP-62 = system: HOP-62
HOP-92 = system: HOP-92
Hs-578T = system: Hs-578T
IGROV-1 = system: IGROV-1
K562 = system: K562
KM-20L2 = system: KM-20L2
KM12 = system: KM12
LOX IMVI = system: LOX IMVI
LXFL 529 = system: LXFL 529
M14 = system: M14
M19-MEL = system: M19-MEL
MCF7 = system: MCF7
MDA-MB-231 = system: MDA-MB-231
MDA-MB-435 = system: MDA-MB-435
MDA-N = system: MDA-N
MOLT-4 = system: MOLT-4
Malme-3M = system: Malme-3M
NCI-H226 = system: NCI-H226
NCI-H23 = system: NCI-H23
NCI-H460 = system: NCI-H460
NCI-H522 = system: NCI-H522
NCI/ADR-RES = system: NCI/ADR-RES
OVCAR-3 = system: OVCAR-3
OVCAR-5 = system: OVCAR-5
OVCAR-8 = system: OVCAR-8
PC-3 = system: PC-3
RPMI-8226 = system: RPMI-8226
RXF 393 = system: RXF 393
SF-268 = system: SF-268
SF-295 = system: SF-295
SF-539 = system: SF-539
SK-MEL-28 = system: SK-MEL-28
SK-MEL-2 = system: SK-MEL-2
SK-MEL-5 = system: SK-MEL-5
SK-OV-3 = system: SK-OV-3
SN12C = system: SN12C
SNB-19 = system: SNB-19
SNB-75 = system: SNB-75
SNB-78 = system: SNB-78
SR = system: SR
SW-620 = system: SW-620
T47D = system: T47D
TK-10 = system: TK-10
U-251 = system: U-251
UACC-257 = system: UACC-257
UACC-62 = system: UACC-62
UO-31 = system: UO-31
HT-29 = system: HT-29
OVCAR-4 = system: OVCAR-4
XF498 = system: XF498

COc1cc(C2C3=C(COC3=O)Oc3cc4c(cc32)OCO4)cc(OC)c1OC (centres undefined)
GI50 (786-0): 33.3 nM (active)
GI50 (A498): 4.88 nM (active)
GI50 (A549): 35.4 nM (active)
GI50 (ACHN): < 32.6 nM (active)
GI50 (BT-549): 245 nM (active)
GI50 (CAKI-1): 10 nM (active)
GI50 (CCRF-CEM): 31.4 nM (active)
GI50 (COLO 205): 33.3 nM (active)
GI50 (DLD-1): 22 nM (active)
GI50 (DMS-114): 9.62 nM (active)
GI50 (DMS-273): 10 nM (active)
GI50 (DU-145): 25.6 nM (active)
GI50 (EKVX): 15 nM (active)
GI50 (HCC 2998): 40.2 nM (active)
GI50 (HCT-116): < 14.4 nM (active)
GI50 (HCT-15): < 15.8 nM
GI50 (HL-60): 15.4 nM (active)
GI50 (HOP-18): 160 nM (active)
GI50 (HOP-62): < 25.5 nM (active)
GI50 (HOP-92): 16.1 nM (active)
GI50 (Hs-578T): 52.1 nM (active)
GI50 (IGROV-1): 48.9 nM (active)
GI50 (K562): 10.8 nM (active)
GI50 (KM-20L2): 13.9 nM (active)
GI50 (KM12): 11.2 nM (active)
GI50 (LOX IMVI): < 16.4 nM (active)
GI50 (LXFL 529): 7.18 nM (active)
GI50 (M14): 32.6 nM (active)
GI50 (M19-MEL): 26.9 nM (active)
GI50 (MCF7): 42.3 nM (active)
GI50 (MDA-MB-231): 66.7 nM (active)
GI50 (MDA-MB-435): 29.5 nM (active)
GI50 (MDA-N): 21.9 nM (active)
GI50 (MOLT-4): 24 nM (active)
GI50 (Malme-3M): 82.8 nM (active)
GI50 (NCI-H226): 123 nM (active)
GI50 (NCI-H23): 44.1 nM (active)
GI50 (NCI-H460): 21.6 nM (active)
GI50 (NCI-H522): 1 nM (active)
GI50 (NCI/ADR-RES): 18.5 nM (active)
GI50 (OVCAR-3): 25 nM (active)
GI50 (OVCAR-5): 274 nM (active)
GI50 (OVCAR-8): 33.5 nM (active)
GI50 (PC-3): 33.1 nM (active)
GI50 (RPMI-8226): 40.1 nM (active)
GI50 (RXF 393): 10.6 nM (active)
GI50 (SF-268): 41.7 nM (active)
GI50 (SF-295): 10.9 nM (active)
GI50 (SF-539): 21.8 nM (active)
GI50 (SK-MEL-28): 7.71 nM (active)
GI50 (SK-MEL-2): 39 nM (active)
GI50 (SK-MEL-5): 19.8 nM (active)
GI50 (SK-OV-3): < 14.4 nM (active)
GI50 (SN12C): 51.5 nM (active)
GI50 (SNB-19): 34 nM (active)
GI50 (SNB-75): 9.93 nM (active)
GI50 (SNB-78): 8.49 nM (active)
GI50 (SR): 42.4 nM (active)
GI50 (SW-620): 17.3 nM (active)
GI50 (T47D): > 10000 nM (inactive)
GI50 (TK-10): > 10000 nM (inactive)
GI50 (U-251): 26.2 nM (active)
GI50 (UACC-257): 67.3 nM (active)
GI50 (UACC-62): 16.6 nM (active)
GI50 (UO-31): 139 nM (active)

CC1=C(c2ccccc2)C(c2ccccc2)=C(c2ccccc2)C2(c3ccccc3)C(=O)C(C)CN12 (centres undefined)
GI50 (786-0): 30600 nM (inactive)
GI50 (A498): > 100000 nM (inactive)
GI50 (A549): 57100 nM (inactive)
GI50 (ACHN): 41400 nM (inactive)
GI50 (CAKI-1): 57300 nM (inactive)
GI50 (DLD-1): 61800 nM (inactive)
GI50 (DMS-273): 46100 nM (inactive)
GI50 (EKVX): 41400 nM (inactive)
GI50 (HCC 2998): > 100000 nM (inactive)
GI50 (HCT-116): 45300 nM (inactive)
GI50 (HCT-15): 61200 nM
GI50 (HOP-62): > 100000 nM (inactive)
GI50 (HT-29): 42300 nM (inactive)
GI50 (IGROV-1): 99500 nM (inactive)
GI50 (K562): > 10000 nM (inactive)
GI50 (KM-20L2): 45500 nM (inactive)
GI50 (KM12): 43100 nM (inactive)
GI50 (LOX IMVI): 58700 nM (inactive)
GI50 (LXFL 529): 43800 nM (inactive)
GI50 (M14): 51600 nM (inactive)
GI50 (M19-MEL): 58500 nM (inactive)
GI50 (MOLT-4): 16600 nM (inactive)
GI50 (Malme-3M): > 100000 nM (inactive)
GI50 (NCI-H226): 21000 nM (inactive)
GI50 (NCI-H460): 32700 nM (inactive)
GI50 (NCI-H522): 15700 nM (inactive)
GI50 (OVCAR-3): 34700 nM (inactive)
GI50 (OVCAR-4): 20800 nM (inactive)
GI50 (OVCAR-5): 49900 nM (inactive)
GI50 (OVCAR-8): 17900 nM (inactive)
GI50 (RPMI-8226): 29200 nM (inactive)
GI50 (RXF 393): 26100 nM (inactive)
GI50 (SF-268): > 100000 nM (inactive)
GI50 (SF-295): 13300 nM (inactive)
GI50 (SF-539): 31500 nM (inactive)
GI50 (SK-MEL-28): > 100000 nM (inactive)
GI50 (SK-MEL-2): 95700 nM (inactive)
GI50 (SK-MEL-5): 59000 nM (inactive)
GI50 (SK-OV-3): > 100000 nM (inactive)
GI50 (SN12C): 41700 nM (inactive)
GI50 (SNB-19): 26500 nM (inactive)
GI50 (SNB-75): 19400 nM (inactive)
GI50 (SR): 26400 nM (inactive)
GI50 (SW-620): 79100 nM (inactive)
GI50 (U-251): 30300 nM (inactive)
GI50 (UACC-257): 30500 nM (inactive)
GI50 (UACC-62): 10300 nM (inactive)
GI50 (UO-31): > 100000 nM (inactive)
GI50 (XF498): 16900 nM (inactive)
